The values that follow come from ChEMBL document CHEMBL1155957, “A novel peptide from alpha5 helix of Asterina pectinifera cyclin B conjugated to HIV-Tat(49-57) with cytotoxic and apoptotic effects against human cancer cells” (2008).

The source made the active and inactive calls. The rule behind the calls is not given here.

The test system of experiment [1] is HCT-116. Briefly: Antiproliferative activity against human HCT116 cells at 100 uM for 24 hrs by MTT assay. Format: functional. Background: Formazan colour is commonly taken as a measure of viable cells.
For experiment [2], the system named is HCT-116. Kind of experiment: Induction of apoptosis in human HCT116 cells assessed as increase in cell debris at 30 uM after 18 hrs. The class given is functional, cell-based.
The nature of experiment [3]: (§1) Antiproliferative activity against human EC9706 cells at 75 uM for 24 hrs by MTT assay. Format: functional.
A short description of experiment [4]: (§2) Antiproliferative activity against human EC9706 cells at 100 uM for 24 hrs by MTT assay. Format: functional.
Experiment [5] is described as follows: Cell cycle arrest in human EC9706 cells assessed as accumulation in G2/M phase at 30 uM after 18 hrs. The class given is functional, cell-based.
The test system of experiment [6] is EC9706. Briefly: Induction of apoptosis in human EC9706 cells assessed as morphological changes at 100 uM after 24 hrs. The class given is functional, cell-based.
Experiment [7] concerns HCT-116. Briefly: Induction of apoptosis in human HCT116 cells assessed as morphological changes at 100 uM after 24 hrs. Format: functional, cell-based.
The test system of experiment [8] is HCT-116. Briefly: Cell cycle arrest in human HCT116 cells assessed as accumulation in G2/M phase at 30 uM after 12 hrs. The class given is functional, cell-based.
The test system of experiment [9] is HCT-116. Briefly: Antiproliferative activity against human HCT116 cells at 30 uM for 24 hrs by MTT assay. Format: functional.
A short description of experiment [10]: Cell cycle arrest in human EC9706 cells assessed as accumulation in G2/M phase at 30 uM after 12 hrs. The class given is functional, cell-based.
Experiment [11] concerns EC9706. The description is as §1. Format: functional.
Experiment [12] deals with EC9706. The experiment is described as §2. The class given is functional.

As for H-KAQIRAMECNILGRKKRRQRRR-OH, the Activity stood at 16% in [1], 69% in experiment [3], 52% in [4] and 55% in experiment [9]. Besides, the result in experiment [2], in experiment [5], in experiment [6], in experiment [7], in experiment [8] and in experiment [10] was Active.
As to `N=C(N)NCCC[C@H](NC(=O)[C@H](CCCNC(=N)N)NC(=O)[C@H](CCCNC(=N)N)NC(=O)[C@H](CCC(N)=O)NC(=O)[C@H](CCCNC(=N)N)NC(=O)[C@H](CCCNC(=N)N)NC(=O)[C@H](CCCCN)NC(=O)[C@H](CCCCN)NC(=O)[C@@H](N)CCCNC(=N)N)C(=O)O`, the result in experiment [1], in experiment [11], in [12], in experiment [5], in experiment [6] and in [7] was inactive. Also, the result in [9] and in experiment [10] was inactive.
On to H-KAQIRAMECNIL-OH, for which the outcome in experiment [1], in experiment [11], in experiment [12] and in [9] was inactive.
